The star is where a group is joined. Palmitoyl = CCCCCCCCCCCCCCCC(=O)*; NHhexadecyl = CCCCCCCCCCCCCCCCN*; NHHex = CCCCCCN*

The test system of one assay is JARID1A gene. In words: JARID1A gene expression in synchronized human epidermal keratinocytes (HEKa), real time PCR arrays. The format is cell-based. The note with it: 0.005 mg/ml, one experiment. The protocol:
In Vitro Study of JARID1A Gene Expression in Synchronized Human Epidermal Keratinocytes from Adult (HEKa) Using Real Time PCR Arrays.
HEKa cells (Life Technologies) are seeded at 3.0×10^5 cells/well in 12-well plates (2 wells per condition) and incubated in culture medium, Keratinocyte growth medium supplemented with Mix C39016-CaCl2 solution (Promocell). For synchronization, cells were subjected to two alternative cycles of 12 hours each at 37° C. in 5% CO2 humidified air (day mode) and 33° C. in 5% CO2 humidified air (night mode). 12 hours after starting synchronization, cells are incubated with the peptides at 0.5 mg/ml or (5 μg/ml) in culture medium, depending on the toxicity effects of each peptide (non-toxic conditions are selected). Cells treated with medium alone are used as basal condition.
At the end of synchronization, cell lysates are collected at two different times: 7:30 hour (early morning point) and 11:30 hour (midday point). Briefly, cells are lysed directly in the wells, and RNA is purified following the protocol described on the RNeasy™ Mini kit (Qiagen) according to the manufacture's protocol. After RNA elution, quantification and analysis of purity of RNA samples are performed with a nanodrop (Thermo). For each sample, 3 μg of high quality RNA is retrotranscribed with iScript Advanced™ (BioRad) in a final volume of 20 μl. Complete reaction mix is incubated in a thermal cycler (Eppendorf) at 42° C. for 30 minutes, and the reaction is stopped at 85° C. for 5 minutes. Complementary DNA is amplified by qPCR in a real-time PCR thermocycler (BioRad) using SYBR Green Supermix™ (BioRad) in the 96-well plate for use with SYBR® Green (BioRad). SYBR Green binds to double-stranded DNA molecules and emits fluorescence which is quantified, and the fluorescence intensity is proportional to the amount of the product in the PCR reaction. Cycling conditions in BioRad CFX96™ instrument are: 95° C. for 3 minutes, followed by 40 cycles of denaturing at 95° C. for 5 seconds, annealing and elongation at 60° C. for 30 seconds. GAPDH (Glyceraldehyde 3-phosphate dehydrogenase), TBP (TATA box binding protein) and HRPT1 (hypoxanthine phosphoribosyltransferase 1) are used as endogenous controls. Fold change relative to the expression of the sample genes and reference genes is calculated using normalized expression (AA(Ct)) method using CFX Manager Software™ (BioRad).
Fold induction of JARID1A gene at 7:30 hour with respect to basal conditions at 7:30 hour for the samples tested are shown in Table 7. The data for fold induction represent the value of one experiment.
A general note: Real-time PCR tracks product formation cycle by cycle.
“Palm-Phe-Trp-Met-Lys-Arg-Lys-Arg-Val-Pro-NH2 (Palmitoyl-FWMKRKRVP-NH2; SMILES CCCCCCCCCCCCCCCC(=O)N[C@@H](Cc1ccccc1)C(=O)N[C@@H](Cc1c[nH]c2ccccc12)C(=O)N[C@@H](CCSC)C(=O)N[C@@H](CCCCN)C(=O)N[C@@H](CCCNC(=N)N)C(=O)N[C@@H](CCCCN)C(=O)N[C@@H](CCCNC(=N)N)C(=O)N[C@H](C(=O)N1CCC[C@H]1C(N)=O)C(C)C) [PEP-2]”: the “Fold induction with respect to Basal condition at 7:30h (%)” value (from here on “Fold induction … (%)”) was found to be 122.22%.
Same read-out and setting: as for “Palm-Phe-Trp-Met-Lys-Arg-Lys-Arg-Val-Pro-OH (Palmitoyl-FWMKRKRVP-OH; SMILES CCCCCCCCCCCCCCCC(=O)N[C@@H](Cc1ccccc1)C(=O)N[C@@H](Cc1c[nH]c2ccccc12)C(=O)N[C@@H](CCSC)C(=O)N[C@@H](CCCCN)C(=O)N[C@@H](CCCNC(=N)N)C(=O)N[C@@H](CCCCN)C(=O)N[C@@H](CCCNC(=N)N)C(=O)N[C@H](C(=O)N1CCC[C@H]1C(=O)O)C(C)C) [PEP-5]”, the figure is 121.55%.

The assay is the same for the next values; noted with them: 0.5 mg/ml, one experiment.
On to “Ac-Phe-Trp-Met-Lys-Arg-Lys-Arg-Val-Pro-NH2 (Ac-FWMKRKRVP-NH2) [PEP-3]”, for which the “Fold induction … (%)” value came out at 126.63%.
On the same count and under the same terms, as for “Ac-Phe-Trp-Met-Lys-Arg-Lys-Arg-Val-Pro-OH (Ac-FWMKRKRVP-OH) [PEP-6]”, the figure is 109.08%.
With “H-Phe-Trp-Ile-Gln-Arg-Lys-His-Met-Pro-NH2 (H-FWIQRKHMP-NH2) [PEP-10]”, the “Fold induction … (%)” value worked out at 138.09%.
For the compound “H-Phe-Trp-Leu-Arg-Arg-Lys-Lys-Ile-Pro-NH2 (H-FWLRRKKIP-NH2) [PEP-9]”, the “Fold induction … (%)” value is listed as 141.90%.
Turning to “H-Phe-Trp-Leu-Lys-Arg-Lys-Arg-Val-Pro-NH2 (H-FWLKRKRVP-NH2) [PEP-11]”, the “Fold induction … (%)” value came out at 127.91%.
On to “H-Phe-Trp-Met-Arg-Arg-Lys-Arg-Val-Pro-NH2 (H-FWMRRKRVP-NH2) [PEP-12]”, for which the “Fold induction … (%)” value was 203.75%.
As for “H-Phe-Trp-Met-Lys-Arg-Lys-Arg-Ile-Pro-NH2 (H-FWMKRKRIP-NH2) [PEP-14]”, the “Fold induction … (%)” value was 187.65%.
On the same count and under the same terms, as for “H-Phe-Trp-Met-Lys-Arg-Lys-Arg-Leu-Pro-NH2 (H-FWMKRKRLP-NH2) [PEP-15]”, the figure is 123.90%; as for “H-Phe-Trp-Met-Lys-Arg-Lys-Arg-Val-Pro-NHC6H13 (H-FWMKRKRVP-NHHex; SMILES CCCCCCNC(=O)[C@@H]1CCCN1C(=O)[C@@H](NC(=O)[C@H](CCCNC(=N)N)NC(=O)[C@H](CCCCN)NC(=O)[C@H](CCCNC(=N)N)NC(=O)[C@H](CCCCN)NC(=O)[C@H](CCSC)NC(=O)[C@H](Cc1c[nH]c2ccccc12)NC(=O)[C@@H](N)Cc1ccccc1)C(C)C) [PEP-7]”, 159.64%; as for “H-Phe-Trp-Met-Lys-Arg-Lys-Arg-Val-Pro-NHC16H33 (H-FWMKRKRVP-NHhexadecyl; SMILES CCCCCCCCCCCCCCCCNC(=O)[C@@H]1CCCN1C(=O)[C@@H](NC(=O)[C@H](CCCNC(=N)N)NC(=O)[C@H](CCCCN)NC(=O)[C@H](CCCNC(=N)N)NC(=O)[C@H](CCCCN)NC(=O)[C@H](CCSC)NC(=O)[C@H](Cc1c[nH]c2ccccc12)NC(=O)[C@@H](N)Cc1ccccc1)C(C)C) [PEP-8]”, 113.64%.
Still for that read-out and setting: as for “H-Phe-Trp-Met-Lys-Arg-Lys-Arg-Val-Pro-OH (H-FWMKRKRVP-OH) [PEP-4]”, the figure is 158.92%.
For the compound “H-Phe-Trp-Met-Lys-Arg-Lys-Lys-Val-Pro-NH2 (H-FWMKRKKVP-NH2) [PEP-13]”, the “Fold induction … (%)” value was determined as 147.62%.

In a further assay the test system is Human Dermal Fibroblasts (HDFa). As to the kind of experiment: Reactive oxygen species (ROS) levels in HDFa, fluorescence. The class given is cell-based. The conditions noted are these: 0.05 mM, 30 min, positive control. The protocol: Evaluation of Reactive Oxygen Species (ROS) Levels on Human Dermal Fibroblasts (HDFa) by a Fluorescence Approach. Human Dermal Fibroblasts from adult (HDFa, Life Technologies) are seeded at a density of 10,000 cells/well (3 wells per condition) in 96-well plates in culture medium M106 with Low Serum Growth Supplement (LSGS, Life Technologies). Cells are grown during 24 hours at 37° C. in 5% CO2 humidified air. Then, medium is removed and cells are treated with the peptide […] (PEP-1, H-[SEQ ID. NO. 2]-NH2) during 16 hours at 37° C. in 5% CO2 humidified air. Non-treated cells incubated in treatment medium alone are used as basal conditions. […] After 30 min at 37° C. in 5% CO2 humidified air, cells are used to quantify ROS levels. ROS levels are quantified using a Cellular Reactive Oxygen Species Detection Assay Kit (Abcam) according to the manufacture's protocol. […] After the period of time, fluorescence signal is determined using Operetta® confocal microscope (PerkinElmer, Inc). Fluorescence intensities are measured using Mitotracker OrangeTM channel (Excitation Filter: 520-550 nm/Emission Filter: 560-630 nm) and are corrected by the determination of the number of nuclei per well. […]
On to `OO` [Hydrogen peroxide, Hydrogen Peroxide], for which the “Percentage of ROS level relative to basal control conditions (%)” value amounted to 1309.23%.

The test system of a further assay is mitochondrial complex I (NADH dehydrogenase). As to the kind of experiment: Mitochondrial complex I activity in human dermal fibroblasts, colorimetric assay. The class given is cell-based. The conditions noted are these: HDFa, 10 mM, 48 hours, positive control. The protocol:
Inhibition of Mitochondrial Complex I Activity Using an Assay Based on Colorimetric Detection. Human Dermal Fibroblasts from adult (HDFa, Life Technologies) are seeded at a density of 750.000 cells/75 cm^2 flask (one flask per condition) in culture medium M106 with Low Serum Growth Supplement (Life Technologies). Cells are grown during 8 days at 37° C. in 5% CO2 humidified air. Then, medium is removed and cells are treated with scalar dilutions of the peptide […] (PEP-1, H-[SEQ ID. NO. 2]-NH2) at 1, 0.5 and 0.1 mg/ml in culture medium during 48 hours at 37° C. in 5% CO2 humidified air. Non-treated cells incubated in culture medium alone are used as basal conditions. […] After 48 hours of treatment, cells are detached using trypsin and resuspended in 60 ul of Phosphate buffer saline (Sigma). Total protein concentration is measured by a Pierce BCA Protein Assay Kit (BCA Assay, Thermo Scientific) following manufacturer's protocol to adjust the final protein concentration between 700-1000 ug/ml. Briefly, standards and samples are dispensed and Working Reagent is added to the samples. After 30 minutes of incubation at 37° C., absorbance is measured with a microplate reader (Clariostar®, BMG) at 562 nm. Mitochondrial complex I activity is measured with Complex I enzyme activity microplate assay Kit (Abcam) according to the manufacture's protocol. This assay follows the oxidation of NADH to NAD coupled to the reduction of a specific colorimetric dye, leading to an increase in absorbance at 450 nm. In brief, 200 ul of each sample (adjusted to 700-1000 ug/ml of total protein amount) is incubated for 3 hours. After that, wells are washed several times and incubated with Assay Solution provided with the kit (composed by NADH and the specific dye). For the determination of mitochondrial complex I activity, colorimetric increase of Optical Density (OD) at 450 nm in a kinetic reaction along 1 hour is measured with a microplate reader (Clariostar©, BMG). Results are calculated as the rate of increase in OD at 450 nm between two points in the linear zone over time. The percentage of mitochondrial complex I activity relative to basal conditions after the treatment with […] (PEP-1, H-[SEQ ID. NO. 2]-NH2) is represented in Table 9. These values represent the mean for at least three independent assays.
Regarding `CN(C)C(=N)N=C(N)N` [Metformin, reference compound], the “Percentage of mitochondrial complex I activity relative to basal condition (%)” value was 63.61%.

The values above are taken from patent publication US11896704B2, “Compounds useful for the treatment and/or care of the skin, hair, nails and/or mucous membranes” (LUBRIZOL ADVANCED MATERIALS, INC., priority 2017, dated 2024).
